Laboratory results as given in patent US9132164B2, “Pharmaceutical compositions comprising angiotensin-(1-9), derivatives thereof, or a vector expressing ACE2, useful for treating cardiovascular, pulmonary, cerebral, and/or renal remodeling” (PONTIFICIA UNIVERSIDAD CATOLICA DE CHILE, priority 2008, dated 2015).
Marks after values point to notes of the source that are not given here.

Experiments:
Format in all cases: in vivo, Sprague Dawley rats
[1] = tested on: sham and infarcted rats (left coronary artery ligation); experiment: Effect of candesartan and enalapril on blood pressure, morphometry and function of the left ventricle after coronary artery ligation; settings: for Infarct size LV / LLVWT / LVAWT / LVEDD / LVESD / LVFS / SBP / LVP content / LVW/BW / mRNA ANF / β-MHC: 10 mg/kg daily by gavage, 8 weeks, average ± SEM
Procedure: (§1) Male Sprague Dawley rats were kept in cages with access to water and food ad libitum. This procedure was performed in accordance with the Guide for the Care and Use of Laboratory Animals, published by “U.S. National Institutes of Health” (NIH publication No 85-23, revised 1985) and was approved by our Institutional Ethics Committee. For studies with enalapril and candesartan, 71 adult normotensive rats were randomly separated into two groups and underwent a sham surgery (surgery without ligation of the coronary artery, n=34) or myocardial infarction following a surgery with ligation of the left coronary artery (infarction, n=37) as previously described (Ocaranza et al, Hypertension 48:572-8, 2006). Briefly, the left coronary artery was ligated between the pulmonary artery exit and left auricle with a 7-0 silk suture under aseptic conditions in rats anaesthetized with ketamine-HCl/xilazine (35/7 mg/kg intraperitoneal, respectively). Sham rats underwent the same surgical procedure except that the suture was not passed around the left coronary artery. Myocardial infarction was confirmed by electrocardiography 24 h following surgery. Mortality rate from myocardial infarction following ligation of the left coronary artery was 25% within 48 h after occlusion. Infarct size in survivors was determined by planimetry of endocardial circumference of left ventricle on histological sections. Sham and infracted rats were randomized to receive the carrier, candesartan (10 mg/kg of body weight daily) or enalapril (10 mg/kg of body weight daily) by gavage for 8 weeks, beginning 48 h after infarction.
Systolic blood pressure (SBP) was determined by using the “tail-cuff” method by investigators who were blind to the treatment group. Left ventricle function was determined by transthoracic bidimensional echocardiography using a Sonos 5000 equipped with a 5 to 12 MHz sectorial electronic ultraband S12 Philips transducer. The following echocardiographic parameters were determined: left ventricular end-systolic diameter (LVESD), left ventricular end diastolic diameter (LVEDD), left ventricular fractional shortening (LVFS), left ventricular anterior wall thickness (LVAWT), and left ventricular posterior wall thickness (LLVWT).
The extent of left ventricular hypertrophy was calculated by the relationship among left ventricular weight (LVW), body weight (BW), mRNA relative levels of the auricular natriuretic factor (ANF), left ventricular protein content (LVP), and protein levels of β-myosinheavy chain (β-MHC) as described in (Ocaranza et al, Hypertension 48:572-8, 2006).
Left ventricular hypertrophy (LVH) was assessed by ecocardiography, relative left ventricle weight (RLVW, mg left ventricle weight (LVW)/body weight (BW)), relative levels of auricular natriuretic factor (ANF) mRNA, left ventricle protein (LVP) content, and β-myosin heavy chain (β-MHC) content are described in example 1.

[2] = Circulating angiotensin levels post coronary artery ligation (HPLC and radioimmunoassay); settings: for Ang I / Ang II / Ang II/Ang I / Ang-(1 -7) / Ang-(1-7)/Ang II / Ang-(1 -9) / Ang-(1-9)/Ang I: plasma, 10 mg/kg daily, 8 weeks, average ± SEM
Procedure: as §1
(§2) Plasma angiotensin and bradykinin levels were determined as described by (Ocaranza et al, Hypertension 48:572-8, 2006; Ocaranza et al, Life Sci. 78:1535-42, 2005; Campbell et al, J. Mol. Cell. Cardiol. 27:1545-60, 1995). Briefly, rats were anesthetized with a combination of ketamin (125 mg/kg) and xilazin (12.5 mg/kg) administered via intraperitoneal injection. […] Plasmas were stored at −80° C. until their extraction using C18 Sep-Pak cartridges, and peptides were acetylated. Acetylated angiotensin II, angiotensin I, angiotensin-(1-7), angiotensin-(1-9), bradykinin-(1-7) and bradykinin-(1-9) were separated by high performance liquid chromatography (HPLC) and were detected by radioimmunoassay.
(§3) Plasma angiotensin and bradykinin (BK) levels were determined by high performance liquid chromatography and radioimmunoassay as described in example No 2. Angiotensin-I levels are lower in the infarcted rats group, associated with higher levels of angiotensin-II. However, plasma angiotensin-(1-7) and angiotensin-(1,9) levels were similar in sham rats and infarcted rats. Enalapril and candesartan increase both angiotensin-(1-9) circulating levels, and -(1-7)/angiotensin-II and angiotensin-(1-9)/angiotensin-I ratios in both experimental groups. Plasma angiotensin-(1-7) levels were increased by candesartan, and bradykinin-(1-9) levels were increased by enalapril both in infarcted rats and sham rats (Tables 3 and 4).

[3] = Circulating bradykinin levels post coronary artery ligation (HPLC and radioimmunoassay); settings: for Bk-(1-7) / Bk-(1-7)/Bk-(1-9) / Bk-(1-9): plasma, 10 mg/kg daily, 8 weeks, ± SEM
Procedure: as §1, §2, §3

[4] = both experimental groups (sham and infarcted rats)

CCOC(=O)[C@H](CCc1ccccc1)N[C@@H](C)C(=O)N1CCC[C@H]1C(=O)O [enalapril]
Infarct size LV ([1]; infarcted rats (MI)): 31 ± 2%
LLVWT ([1]; infarcted rats (MI)): 1.5 ± 0.1 mm
LVAWT ([1]; infarcted rats (MI)): 0.9 ± 0.1 mm
LVEDD ([1]; infarcted rats (MI)): 7.1 ± 0.2 mm
LVESD ([1]; infarcted rats (MI)): 5.4 ± 0.3 mm
LVFS ([1]; infarcted rats (MI)): 21 ± 1 %
SBP ([1]; infarcted rats (MI)): 110 ± 3 mm Hg
left ventricle dilatation ([1]; infarcted rats, week 8): significantly prevented
LLVWT ([1]; sham rats): 1.4 ± 0.0 mm
LVAWT ([1]; sham rats): 1.3 ± 0.2 mm
LVEDD ([1]; sham rats): 7.5 ± 0.3 mm
LVESD ([1]; sham rats): 5.2 ± 0.1 mm
LVFS ([1]; sham rats): 30 ± 1%
LVP content ([1]; sham rats): 12.4 ± 0.8 mg
LVW/BW ([1]; sham rats): 2.7 ± 0.2 mg/g
SBP ([1]; sham rats): 113 ± 2 mm Hg
mRNA ANF ([1]; sham rats): 0.9 ± 0.1 times
β-MHC ([1]; sham rats): 1.3 ± 0.2 times
-(1-7)/angiotensin-II ratio [2, 4]: increase
angiotensin-(1-9) circulating levels [2, 4]: increase
angiotensin-(1-9)/angiotensin-I ratio [2, 4]: increase
Ang I ([2]; infarcted rats (MI)): 32.4 ± 0.8 fmol/g
Ang II ([2]; infarcted rats (MI)): 23.3 ± 5.4 fmol/g
Ang II/Ang I ([2]; infarcted rats (MI)): 0.72 ± 0.1
Ang-(1 -7) ([2]; infarcted rats (MI)): 3.8 ± 0.6 fmol/g
Ang-(1-7)/Ang II ([2]; infarcted rats (MI)): 0.26 ± 0.02
Ang-(1 -9) ([2]; infarcted rats (MI)): 29 ± 3 fmol/g
Ang-(1-9)/Ang I ([2]; infarcted rats (MI)): 0.89 ± 0.02
Ang I ([2]; sham rats): 30.7 ± 1.0 fmol/g
Ang II ([2]; sham rats): 15.4 ± 3.8 fmol/g
Ang II/Ang I ([2]; sham rats): 0.45 ± 0.05
Ang-(1 -7) ([2]; sham rats): 4.1 ± 0.5 fmol/g
Ang-(1-7)/Ang II ([2]; sham rats): 0.25 ± 0.07
Ang-(1 -9) ([2]; sham rats): 25 ± 5 fmol/g
Ang-(1-9)/Ang I ([2]; sham rats): 0.75 ± 0.03
bradykinin-(1-9) levels ([3]; both in infarcted rats and sham rats): increased
Bk-(1-7) ([3]; infarcted rats (MI)): 1.40 ± 0.17 fmol/g
Bk-(1-7)/Bk-(1-9) ([3]; infarcted rats (MI)): 0.17 ± 0.06
Bk-(1-9) ([3]; infarcted rats (MI)): 7.89 ± 1.22 fmol/g
Bk-(1-7) ([3]; sham rats): 1.48 ± 0.46 fmol/g
Bk-(1-7)/Bk-(1-9) ([3]; sham rats): 0.19 ± 0.04
Bk-(1-9) ([3]; sham rats): 9.53 ± 2.99 fmol/g

CCOc1nc2cccc(C(=O)O)c2n1Cc1ccc(-c2ccccc2-c2nnn[nH]2)cc1 [candesartan]
Infarct size LV ([1]; infarcted rats (MI)): 30 ± 1%
LVAWT ([1]; infarcted rats (MI)): 0.9 ± 0.4 mm
LVEDD ([1]; infarcted rats (MI)): 8.0 ± 0.3 mm
LVESD ([1]; infarcted rats (MI)): 5.9 ± 0.4 mm
LVFS ([1]; infarcted rats (MI)): 22 ± 2 %
SBP ([1]; infarcted rats (MI)): 88 ± 4*^#¶ mm Hg
LLVWT ([1]; sham rats): 1.1 ± 0.0 mm
LVAWT ([1]; sham rats): 1.1 ± 0.4 mm
LVEDD ([1]; sham rats): 7.7 ± 0.2 mm
LVESD ([1]; sham rats): 5.1 ± 0.1 mm
LVFS ([1]; sham rats): 30 ± 2%
LVP content ([1]; sham rats): 11.6 ± 1.1 mg
LVW/BW ([1]; sham rats): 2.7 ± 0.1 mg/g
SBP ([1]; sham rats): 84 ± 4*^#¶ mm Hg
mRNA ANF ([1]; sham rats): 0.7 ± 0.2 times
β-MHC ([1]; sham rats): 1.1 ± 0.2 times
Ang I ([2]; infarcted rats (MI)): 30.7 ± 1.9 fmol/g
Ang II ([2]; infarcted rats (MI)): 34.6 ± 4.2*^¶ fmol/g
Ang II/Ang I ([2]; infarcted rats (MI)): 4.5 ± 0.6*^#¶
Ang-(1 -7) ([2]; infarcted rats (MI)): 14.4 ± 2.7*^#¶ fmol/g
Ang-(1-7)/Ang II ([2]; infarcted rats (MI)): 1.02 ± 0.06*^#¶
Ang-(1 -9) ([2]; infarcted rats (MI)): 43.8 ± 2.9 *^#¶ fmol/g
Ang-(1-9)/Ang I ([2]; infarcted rats (MI)): 2.8 ± 1.1*^#¶
Ang I ([2]; sham rats): 22.6 ± 5.3 fmol/g
Ang II ([2]; sham rats): 38.6 ± 7.2 fmol/g
Ang II/Ang I ([2]; sham rats): 3.3 ± 0.9
Ang-(1 -7) ([2]; sham rats): 10.9 ± 1.6*^#¶ fmol/g
Ang-(1-7)/Ang II ([2]; sham rats): 0.49 ± 0.15
Ang-(1 -9) ([2]; sham rats): 36.2 ± 4.1 fmol/g
Ang-(1-9)/Ang I ([2]; sham rats): 2.6 ± 0.7
Bk-(1-7) ([3]; infarcted rats (MI)): 5.44 ± 1.60 fmol/g
Bk-(1-7)/Bk-(1-9) ([3]; infarcted rats (MI)): 1.18 ± 0.21^¶
Bk-(1-9) ([3]; infarcted rats (MI)): 4.08 ± 1.43^¶ fmol/g
Bk-(1-7) ([3]; sham rats): 4.41 ± 1.5 fmol/g
Bk-(1-7)/Bk-(1-9) ([3]; sham rats): 1.69 ± 0.51
Bk-(1-9) ([3]; sham rats): 4.30 ± 1.36 fmol/g
